{
  "source": "patent US7189850B2",
  "about": "“Triaza-spiropiperidine derivatives” (Hoffmann-La Roche Inc., priority 2003, dated 2007)",
  "note": "pIC50: −log10 of the molar value.",
  "data": [
    {"target": "T1, mGlyT-1b (Mus musculus, UniProt P28571)", "T1 sequence (P28571 1-651 isoform P28571-2)": "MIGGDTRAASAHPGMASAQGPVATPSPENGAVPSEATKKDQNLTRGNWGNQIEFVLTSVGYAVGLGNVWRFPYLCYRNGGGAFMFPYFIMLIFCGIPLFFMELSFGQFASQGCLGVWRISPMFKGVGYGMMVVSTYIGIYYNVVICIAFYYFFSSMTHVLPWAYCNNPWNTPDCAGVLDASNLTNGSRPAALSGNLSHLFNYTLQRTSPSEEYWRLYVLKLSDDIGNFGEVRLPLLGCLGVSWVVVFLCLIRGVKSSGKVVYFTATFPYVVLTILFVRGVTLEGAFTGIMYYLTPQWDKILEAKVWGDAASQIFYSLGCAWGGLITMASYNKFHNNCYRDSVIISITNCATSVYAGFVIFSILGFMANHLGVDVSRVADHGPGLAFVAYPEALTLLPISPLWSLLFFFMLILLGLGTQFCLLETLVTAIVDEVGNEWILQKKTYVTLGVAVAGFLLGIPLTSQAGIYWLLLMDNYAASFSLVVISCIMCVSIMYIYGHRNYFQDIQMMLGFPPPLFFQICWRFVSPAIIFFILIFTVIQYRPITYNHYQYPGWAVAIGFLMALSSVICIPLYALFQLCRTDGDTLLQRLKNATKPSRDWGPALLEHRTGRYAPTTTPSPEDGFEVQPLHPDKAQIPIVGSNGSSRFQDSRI", "assay": "Glycine uptake inhibition assay (mGlyT-1b)", "assay_type": "cell-based", "conditions": "not given", "values": [
      {"smiles": "O=C1NCN(c2ccc(F)cc2)C12CCN([C@H]1CCCC[C@H]1c1ccc(Cl)cc1)CC2", "note": "(racemic) [Example 17, (rac,cis)-8-[2-(4-Chloro-phenyl)-cyclohexyl]-1-(4-fluoro-phenyl)-1,3,8-triaza-spiro[4.5]decan-4-one]", "pIC50": 7.13},
      {"smiles": "Cc1ccc(C2CCCCC2N2CCC3(CC2)C(=O)NCN3c2ccc(F)cc2)cc1", "note": "(racemic) [Example 22, (rac,cis)-1-(4-Fluoro-phenyl)-8-(2-p-tolyl-cyclohexyl)-1,3,8-triaza-spiro[4.5]decan-4-one]", "pIC50": 7.54},
      {"smiles": "O=C1NCN(c2ccc(F)cc2)C12CCN(C1CCCCC1c1ccc(F)cc1)CC2", "note": "(racemic) [Example 24, (rac,cis)-1-(4-Fluoro-phenyl)-8-[2-(4-fluoro-phenyl)-cyclohexyl]-1,3,8-triaza-spiro[4.5]decan-4-one]", "pIC50": 7.17},
      {"smiles": "CC(C)CCN1CNC(=O)C12CCN(C1CCCCC1c1ccccc1)CC2", "note": "(racemic) [Example 54, (rac,cis)-1-(3-Methyl-butyl)-8-(2-phenyl-cyclohexyl)-1,3,8-triaza-spiro[4.5]decan-4-one]", "pIC50": 7.28},
      {"smiles": "O=C1NCN(c2ccc(Cl)c(Cl)c2)C12CCN(C1CCCCC1c1ccccc1)CC2", "note": "(racemic) [Example 59, (rac,cis)-1-(3,4-Dichloro-phenyl)-8-(2-phenyl-cyclohexyl)-1,3,8-triaza-spiro[4.5]decan-4-one]", "pIC50": 7.49},
      {"smiles": "O=C1NCN(c2ccccc2)C12CCN(C1CCCCC1(O)c1ccccc1)CC2", "note": "(racemic) [Example 74, (rac,cis)-8-(2-Hydroxy-2-phenyl-cyclohexyl)-1-phenyl-1,3,8-triaza-spiro[4.5]decan-4-one]", "pIC50": 7.36},
      {"smiles": "O=C1NCN(c2ccccc2)C12CCN(C1CCCCC1(O)c1ccc(F)cc1)CC2", "note": "(racemic) [Example 75, (rac,cis)-8-[2-(4-Fluoro-phenyl)-2-hydroxy-cyclohexyl]-1-phenyl-1,3,8-triaza-spiro[4.5]decan-4-one]", "pIC50": 7.39},
      {"smiles": "Cc1ccccc1C1(O)CCCCC1N1CCC2(CC1)C(=O)NCN2c1ccccc1", "note": "(racemic) [Example 76, (rac,cis)-8-(2-Hydroxy-2-o-tolyl-cyclohexyl)-1-phenyl-1,3,8-triaza-spiro[4.5]decan-4-one]", "pIC50": 7.30},
      {"smiles": "O=C1NCN(c2ccccc2)C12CCN(C1CCCCC1(O)c1ccncc1)CC2", "note": "(racemic) [Example 77, (rac,cis) 8-(2-Hydroxy-2-pyridin-4-yl-cyclohexyl)-1-phenyl-1,3,8-triaza-spiro[4.5]decan-4-one]", "pIC50": 7.21},
      {"smiles": "O=C1NCN(c2ccccc2)C12CCN(C1CCCCC1(O)c1ccc(Cl)cc1)CC2", "note": "(racemic) [Example 78, (rac,cis)-8-[2-(4-Chloro-phenyl)-2-hydroxy-cyclohexyl]-1-phenyl-1,3,8-triaza-spiro[4.5]decan-4-one]", "pIC50": 7.07},
      {"smiles": "O=C1NCN(c2ccc(F)cc2)C12CCN(C1CCCCC1(O)c1ccc(F)cc1)CC2", "note": "(racemic) [Example 87, (rac,cis)-1-(4-Fluoro-phenyl)-8-[2-(4-fluoro-phenyl)-2-hydroxy-cyclohexyl]-1,3,8-triaza-spiro[4.5]decan-4-one]", "pIC50": 7.62},
      {"smiles": "O=C1NCN(c2ccc(F)cc2)C12CCN(C1CCCCC1(O)c1ccc(Cl)cc1)CC2", "note": "(racemic) [Example 88, (rac,cis)-8-[2-(4-Chloro-phenyl)-2-hydroxy-cyclohexyl]-1-(4-fluoro-phenyl)-1,3,8-triaza-spiro[4.5]decan-4-one]", "pIC50": 7.22},
      {"smiles": "O=C1NCN(c2ccc(Cl)cc2)C12CCN(C1CCCCC1(O)c1ccc(F)cc1)CC2", "note": "(racemic) [Example 89, (rac,cis)-1-(4-Chloro-phenyl)-8-[2-(4-fluoro-phenyl)-2-hydroxy-cyclohexyl]-1,3,8-triaza-spiro[4.5]decan-4-one]", "pIC50": 7.82},
      {"smiles": "O=C1NCN(c2ccc(Cl)cc2)C12CCN(C1CCCCC1(O)c1ccc(Cl)cc1)CC2", "note": "(racemic) [Example 90, (rac,cis)-1-(4-Chloro-phenyl)-8-[2-(4-chloro-phenyl)-2-hydroxy-cyclohexyl]-1,3,8-triaza-spiro[4.5]decan-4-one]", "pIC50": 7.37},
      {"smiles": "COc1ccc(N2CNC(=O)C23CCN(C2CCCCC2(O)c2ccc(Cl)cc2)CC3)cc1", "note": "(racemic) [Example 92, (rac,cis)-8-[2-(4-Chloro-phenyl)-2-hydroxy-cyclohexyl]-1-(4-methoxy-phenyl)-1,3,8-triaza-spiro[4.5]decan-4-one]", "pIC50": 7.00},
      {"smiles": "O=C1NCN(c2ccccc2)C12CCN(C1COCCC1(O)c1ccccc1)CC2", "note": "(racemic) [Example 99, (rac,cis)-8-(4-Hydroxy-4-phenyl-tetrahydro-pyran-3-yl)-1-phenyl-1,3,8-triaza-spiro[4.5]decan-4-one]", "pIC50": 7.24},
      {"smiles": "O=C1NCN(c2ccccc2)C12CCN(C1CCOCC1(O)c1ccccc1)CC2", "note": "(racemic) [Example 100, (rac,cis)-8-(3-Hydroxy-3-phenyl-tetrahydro-pyran-4-yl)-1-phenyl-1,3,8-triaza-spiro[4.5]decan-4-one]", "pIC50": 7.05},
      {"smiles": "O=C1NCN(c2ccccc2)C12CCN(C1CCCCC1(O)c1ccccc1)CC2", "note": "(racemic) [Example 101, (rac,trans)-8-(2-Hydroxy-2-phenyl-cyclohexyl)-1-phenyl-1,3,8-triaza-spiro[4.5]decan-4-one]", "pIC50": 7.25}
    ]},
    {"target": "T1, mGlyT-1b", "assay": "Glycine uptake inhibition assay (mGlyT-1b)", "assay_type": "cell-based", "conditions": "Flp-in-CHO cells stably transfected with mGlyT-1b cDNA; [3H]-glycine 60 nM and 25 μM non-radioactive glycine; 20 min preincubation at 22° C.; read-out: IC50 at GlyT-1 (inhibition of glycine uptake)", "values": [
      {"smiles": "Cc1ccc(N2CNC(=O)C23CCN(C2CCCCC2(O)c2ccc(F)cc2)CC3)cc1", "note": "(racemic) [Example 91, (rac,cis)-8-[2-(4-Fluoro-phenyl)-2-hydroxy-cyclohexyl]-1-p-tolyl-1,3,8-triaza-spiro[4.5]decan-4-one]", "pIC50": 7.41}
    ]},
    {"test_system": "not given", "assay": "not given", "conditions": "not given", "units": {"melting point": "°C"}, "values": [
      {"smiles": "O=C1NCN(c2ccccc2)C12CCN(C1CCCCC1c1ccccc1)CC2", "note": "(racemic) [Example 1, (rac,cis)-1-Phenyl-8-(2-phenyl-cyclohexyl)-1,3,8-triaza-spiro[4.5]decan-4-one]", "melting point": "205 to 208"},
      {"smiles": "Cc1ccc(C2CCCCC2N2CCC3(CC2)C(=O)NCN3c2ccccc2)cc1", "note": "(racemic) [Example 8, (rac,cis)-1-Phenyl-8-(2-p-tolyl-cyclohexyl)-1,3,8-triaza-spiro[4.5]decan-4-one]", "melting point": "174 to 176"},
      {"smiles": "O=C1NCN(c2ccccc2)C12CCN([C@H]1CCCC[C@H]1c1ccc(F)cc1)CC2", "note": "(racemic) [Example 10, (rac,cis)-8-[2-(4-Fluoro-phenyl)-cyclohexyl]-1-phenyl-1,3,8-triaza-spiro[4.5]decan-4-one]", "melting point": "198 to 200"},
      {"smiles": "O=C1NCN(c2ccccc2)C12CCN([C@H]1CCCC[C@H]1c1ccc(Cl)cc1)CC2", "note": "(racemic) [Example 11, (rac,cis)-8-[2-(4-Chloro-phenyl)-cyclohexyl]-1-phenyl-1,3,8-triaza-spiro[4.5]decan-4-one]", "melting point": "204 to 206"},
      {"smiles": "O=C1NCN(c2ccccc2)C12CCN([C@H]1CCCC[C@H]1c1ccc(Cl)c(Cl)c1)CC2", "note": "(racemic) [Example 13, (rac,cis)-8-[2-(3,4-Dichloro-phenyl)-cyclohexyl]-1-phenyl-1,3,8-triaza-spiro[4.5]decan-4-one]", "melting point": "198 to 200"},
      {"smiles": "O=C1NCN(c2ccccc2)C12CCN(C1CCCCC1c1ccccc1)CC2", "note": "(racemic) [Example 68, (rac,trans)-1-Phenyl-8-(2-phenyl-cyclohexyl)-1,3,8-triaza-spiro[4.5]decan-4-one]", "melting point": "254 to 256"}
    ]}
  ]
}
